Experiment [1] deals with T1, S1R (Mus musculus, UniProt O55242).
T1 construct: using 20µm fresh frozen brain sections from 6 naïve and 3 AMPA-injected Wistar rats, 6 C57Bl6 mice; from tissue; host or cells: fresh frozen brain sections of 6-OHDA-lesioned C57Bl6 mice
Put plainly: Autoradiography in 6-OHDA Parkinson's disease mouse model. The format is binding. The note with it: 6-OHDA mouse. The protocol: C57Bl6 mice were bred in the animal facility of the European Institute for Molecular Imaging (University of Muenster). Animal experiments were performed in accordance with the German laws for animal protection and were approved by the local bureau for animal care (LANUV, Landesamt für Natur, Umwelt und Verbraucherschutz Nordrhein-Westfalen). For stereotactic injections, mice (n = 6) were anaesthetised (ketamine/xylazine i.p.) and placed into a stereotactic frame. A small skin incision followed by craniotomy was performed. The needle was placed in position (coordinates: AP: +0.5 mm; ML: -2.0 mm; DV: -3.0 mm) and after 1 min, 2 µL of 5 mg/mL 6-hydroxydopamine (6-OHDA) in 0.9% NaCl and 0.02% ascorbic acid were injected into the left striatum using a 5 µL Hamilton 7005KH syringe. The syringe was kept in place for 5 min in order to allow the solution to diffuse into the surrounding tissue and was then retracted slowly.
(§1) Sections of frontal (Brodmann areas 8/9) and temporal cortex (Brodmann areas 21/22) were cut from frozen human tissue blocks. Human and rodents sections were mounted on to glass slides (SuperFrost Plus Gold and SuperFrost Plus slides, Thermo Fisher Scientific Inc., MA, USA for human and animal tissues, respectively). For all steps described below, Tris buffer (Trizma pre-set crystals (Sigma, UK), 50 mM, with 120 mM NaCl, with pH adjusted to 7.4 at 4 °C or room temperature) was used. Slides were allowed to defrost then pre-incubated in Tris Buffer at 4 °C for 5min. […] Adjacent sections were incubated with the same solution containing an excess of unlabelled IAM6067 (2 µM) to assess non-specific binding. Next the slides were washed 2 × 2 min in Tris buffer at 4 °C, followed by a quick rinsing in distilled water at 4 °C. Slides were then dried promptly before exposition on Phosphor-Imager plates overnight. Autoradiographs were analysed using AIDA software (Raytest GmbH, Germany). […] Specific binding (total binding minus non-specific binding) in each ROI is expressed as intensity of the photostimulated luminescence (PSL) per pixel.

The target in experiment [2] is T2, S1R (Homo sapiens, UniProt Q99720).
T2 construct: Post-mortem brain tissues of 23 cases (8 men and 15 women) were obtained from the Manchester Brain Bank; from tissue; host or cells: post-mortem human frontal and temporal cortex (Manchester Brain Bank)
T2 sequence (Q99720 whole entry): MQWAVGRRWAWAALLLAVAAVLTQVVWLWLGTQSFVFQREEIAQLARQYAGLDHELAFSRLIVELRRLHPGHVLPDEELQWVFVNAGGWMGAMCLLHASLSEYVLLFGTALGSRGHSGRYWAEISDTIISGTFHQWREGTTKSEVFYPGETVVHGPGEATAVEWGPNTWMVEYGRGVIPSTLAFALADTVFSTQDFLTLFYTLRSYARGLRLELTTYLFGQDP
In words: Autoradiography in post-mortem human cortex (controls, subclinical AD, AD). The format is binding.
From the text: Post-mortem brain tissues of 23 cases (8 men and 15 women) were obtained from the Manchester Brain Bank through appropriate consenting procedures for collection and use of the human brain tissues. Pathological diagnoses were made by an experienced neuropathologist (DM) as previously described, [48] and were in accordance with recent National Institute on Ageing - Alzheimer's Association guidelines for the neuropathological assessment of AD [49]. By such classification, only cases with Braak stages 5 and 6 were classed as definite AD. Cases with Braak Stages >2 & ≤4 were not diagnosed as definite AD, but these could be considered as cases of possible (incipient) AD, thereby representing cases with early changes of AD. Amyloid plaque load per se was not employed for classification of AD, although it is acknowledged that neuritic plaque scores do form the basis of CERAD classification. Clearly, in terms of amyloid plaques alone, there was overlap in amyloid load between cases at Braak stage >2 & ≤4 and those at Braak stages 5 and 6. Subjects were therefore split in three groups based on their Braak stages: controls (Braak ≤2, 8 subjects), subclinical AD (Braak >2 & ≤4, 8 subjects) and AD (Braak >4, 7 subjects). Details of each case are described in Table 1. […] These were obtained from aged patients with no history of neurological disease and no pathological evidence of AD or other degenerative brain disease. […] The average post-mortem delay was also similar for all groups (mean ± SD [min.-max.]: 34.9 ± 11.3 [12]-[46]; 35.8 ± 9.9 [25]-[48] and 41.5 ± 14.2 [24]-[64] hours for controls, subclinical AD and AD groups, respectively). Subsequently to the autoradiography experiments, measurements from frontal cortex of case #3 were not included as the sections had been damaged during the experiments (Table 1).
as §1
Specific binding for human autoradiography across the three groups in both frontal and temporal cortex and for grey and white matter was analysed by mixed-model fitting (brain structures as repeated factor). As this analysis only returned an effect for the brain structures factor and not for the Braak stage, a Sidak's post-hoc test comparing brain regions only was performed.

T1 sequence (O55242 whole entry): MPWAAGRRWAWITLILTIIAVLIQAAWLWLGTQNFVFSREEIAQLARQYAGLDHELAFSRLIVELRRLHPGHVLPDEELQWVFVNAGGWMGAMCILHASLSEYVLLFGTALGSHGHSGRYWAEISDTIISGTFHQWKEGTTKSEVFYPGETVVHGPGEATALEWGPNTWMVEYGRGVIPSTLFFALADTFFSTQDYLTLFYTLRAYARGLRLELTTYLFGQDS

Take `FCCOc1ccc(CN2CCN(Cc3cc4ccccc4o3)CC2)cc1` [^18F-IAM6067, N-(2-Benzofuranylmethyl)-N'-[4-(2-fluoroethoxy)benzyl]piperazine]: the specific binding was determined as 4.29 ± 0.84 PSL/pixel on S1R [1] (cingulate cortex, contralateral); 4.21 ± 0.87 PSL/pixel on S1R [1] (cingulate cortex, ipsilateral); 3.30 ± 0.55 PSL/pixel at S1R [1] (striatum, contralateral); 3.39 ± 0.49 PSL/pixel on S1R [1] (striatum, ipsilateral); 3.22 ± 0.65 PSL/pixel on S1R [1] (thalamus medio-dorsal, contralateral); 3.25 ± 0.64 PSL/pixel at S1R [1] (thalamus medio-dorsal, ipsilateral). Further, the specific binding at S1R [1] (ventral tegmental area/substantia nigra, contralateral) was 3.92 ± 1.08 PSL/pixel; at S1R [1] (ventral tegmental area/substantia nigra, ipsilateral) it was 3.82 ± 1.25 PSL/pixel; on S1R [2] (human frontal grey matter, AD (Braak >4)), 3.27 ± 0.90 PSL/pixel; on S1R [2] (human frontal grey matter, controls (Braak ≤2)), 2.37 ± 1.09 PSL/pixel; on S1R [2] (human frontal grey matter, subclinical AD (Braak >2 & ≤4)), 3.11 ± 0.84 PSL/pixel; at S1R [2] (human temporal grey matter, AD (Braak >4)), 2.91 ± 1.20 PSL/pixel. The specific binding at S1R [2] (human temporal grey matter, controls (Braak ≤2)) was 2.56 ± 1.24 PSL/pixel; at S1R [2] (human temporal grey matter, subclinical AD (Braak >2 & ≤4)), 2.98 ± 1.15 PSL/pixel.

The values above are taken from publication PMC7381740 (Theranostics, 2020).
